Test results: BindingDB's records for doi:10.1021/acsmedchemlett.9b00552 (Bristol-Myers Squibb Research & Development, 2020)

Molecular target: T1, TGF-beta receptor type-1 (Homo sapiens, UniProt P36897)
T1 sequence (P36897 whole entry): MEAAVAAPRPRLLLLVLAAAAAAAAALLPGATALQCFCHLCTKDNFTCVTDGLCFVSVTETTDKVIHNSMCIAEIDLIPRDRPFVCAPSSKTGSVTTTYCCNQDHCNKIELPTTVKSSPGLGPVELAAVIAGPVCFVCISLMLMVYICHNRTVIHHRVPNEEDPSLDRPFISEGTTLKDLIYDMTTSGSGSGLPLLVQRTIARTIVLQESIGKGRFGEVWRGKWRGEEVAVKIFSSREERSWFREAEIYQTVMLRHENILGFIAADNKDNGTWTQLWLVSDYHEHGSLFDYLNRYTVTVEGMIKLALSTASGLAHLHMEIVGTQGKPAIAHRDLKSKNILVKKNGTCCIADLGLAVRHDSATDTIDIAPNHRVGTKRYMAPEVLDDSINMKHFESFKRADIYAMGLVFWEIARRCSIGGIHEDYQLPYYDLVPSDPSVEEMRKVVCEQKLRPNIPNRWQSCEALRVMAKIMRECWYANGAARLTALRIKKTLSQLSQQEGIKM
Assay: Inhibition of TGFbetaR1 in TGFbeta-stimulated mink Mv1Lu cells assessed as reduction in SMAD nuclear translocation preincubated for 1 hr followed by TGFbeta-stimulation for 15 mins by array scan based method

IC50	SMILES
350 nM	N#Cc1cnc2ccc(-c3c(-c4ccc(F)c(Cl)c4)ncn3CCO)nn12 [6-(4-(3-chloro-4-fluorophenyl)-1-(2-hydroxyethyl)-1H-imidazol-5-yl)imidazo[1,2-b]pyridazine-3-carbonitrile]
420 nM	Cc1cccc(-c2ncn(CC(F)F)c2-c2ccc3nccn3c2)n1
